For seven molecules, IC50 results are on record in ChEMBL document CHEMBL1150224, “Antioxidant benzoylated flavan-3-ol glycoside from Celastrus orbiculatus” (J Nat Prod, 2001).

Converted amounts (≈) assume the structure as drawn.

For the test, the system named is Radical scavenging activity. Nature of the test: Antioxidant activity assessed as DPPH radical scavenging activity. Format: functional. A general note: DPPH is a stable violet radical that fades when it is reduced.
With `O=C(O[C@@H]1Cc2c(O[C@@H]3O[C@H](CO)[C@@H](O)[C@H](O)[C@H]3O)cc(O)cc2O[C@@H]1c1ccc(O)c(O)c1)c1ccccc1`, the IC50 (as a rule, the concentration that inhibits the measured activity by half) was 25 µg/mL (≈ 44.9 µM).
Consider `O=C(O[C@@H]1Cc2c(O)cc(O)cc2O[C@@H]1c1ccc(O)c(O)c1)c1ccccc1`, for which the IC50 stood at 17 µg/mL (≈ 43.1 µM).
For `Oc1cc(O)c2c(c1)O[C@H](c1ccc(O)c(O)c1)[C@H](O)C2` [(-)-EPICATECHIN] the value was 8.5 µg/mL (≈ 29.3 µM); for `COc1ccc(O)c(C(C)(C)C)c1.COc1ccc(O)cc1C(C)(C)C` [BUTYLATED HYDROXYANISOLE], 4.5 µg/mL.
As for `Oc1ccc([C@H]2Oc3cc(O)cc(O)c3C[C@H]2O)cc1` [EPIAFZELECHIN (2R,3R)(-)], the figure is 7.5 µg/mL (≈ 27.3 µM); as for `O=C(O[C@@H]1Cc2c(O)cc(O)cc2O[C@@H]1c1cc(O)c(O)c(O)c1)c1cc(O)c(O)c(O)c1` [EPIGALOCATECHIN GALLATE], 5.6 µg/mL (≈ 12.2 µM); as for VITAMIN E, 6.2 µg/mL.
